Key:
HL-60 = assay: Antiproliferative activity against human HL-60 cells assessed as reduction in cell viability incubated for 48 hrs by MTS assay; assay type: functional, cell-based; details: HL-60, 48 h
HCT-116 = assay: Antiproliferative activity against human HCT-116 cells assessed as reduction in cell viability incubated for 48 hrs by MTS assay; assay type: functional, cell-based; details: HCT-116, 48 h
HeLa [1] = assay: Antiproliferative activity against human HeLa cells assessed as reduction in cell viability incubated for 48 hrs by MTS assay; assay type: functional, cell-based
A549 = assay: cells; details: Homo sapiens, A549, 48 h
Description: Antiproliferative activity against human A549 cells assessed as reduction in cell viability incubated for 48 hrs by MTS assay

HeLa [2] = assay: Induction of apoptosis in human HeLa cells assessed as viable cells at 10 nM incubated for 24 hrs by annexin V FITC and propidium iodide staining based flow cytometry analysis (reference value: 85.7%); assay type: functional; details: read-out: Activity
HeLa [3] = assay: Induction of apoptosis in human HeLa cells assessed as early apoptotic cells at 10 nM incubated for 24 hrs by annexin V FITC and propidium iodide staining based flow cytometry analysis (reference value: 0.12%); assay type: functional
HeLa [4] = assay: Induction of apoptosis in human HeLa cells assessed as late apoptotic cells at 10 nM incubated for 24 hrs by annexin V FITC and propidium iodide staining based flow cytometry analysis (reference value: 0.05%); assay type: functional
HeLa [5] = assay: Induction of apoptosis in human HeLa cells assessed as necrotic cells at 10 nM incubated for 24 hrs by annexin V FITC and propidium iodide staining based flow cytometry analysis (reference value: 1.14 %); assay type: functional
HeLa [6] = assay: Induction of apoptosis in human HeLa cells assessed as viable cells at 10 nM incubated for 48 hrs by annexin V FITC and propidium iodide staining based flow cytometry analysis (reference value: 85.5%); assay type: functional; details: read-out: Activity
HeLa [7] = assay: Induction of apoptosis in human HeLa cells assessed as early apoptotic cells at 10 nM incubated for 48 hrs by annexin V FITC and propidium iodide staining based flow cytometry analysis (reference value: 6.01%); assay type: functional
HeLa [8] = assay: Induction of apoptosis in human HeLa cells assessed as late apoptotic cells at 10 nM incubated for 48 hrs by annexin V FITC and propidium iodide staining based flow cytometry analysis (reference value: 8.87%); assay type: functional
HeLa [9] = assay: Induction of apoptosis in human HeLa cells assessed as necrotic cells at 10 nM incubated for 48 hrs by annexin V FITC and propidium iodide staining based flow cytometry analysis (reference value: 1.85 %); assay type: functional
HeLa [10] = assay: Induction of apoptosis in human HeLa cells assessed as viable cells at 10 nM incubated for 72 hrs by annexin V FITC and propidium iodide staining based flow cytometry analysis (reference value: 90.1%); assay type: functional; details: read-out: Activity
HeLa [11] = assay: Induction of apoptosis in human HeLa cells assessed as early apoptotic cells at 10 nM incubated for 72 hrs by annexin V FITC and propidium iodide staining based flow cytometry analysis (reference value: 2.36%); assay type: functional
HeLa [12] = assay: Induction of apoptosis in human HeLa cells assessed as late apoptotic cells at 10 nM incubated for 72 hrs by annexin V FITC and propidium iodide staining based flow cytometry analysis (reference value: 4.70%); assay type: functional
HeLa [13] = assay: Induction of apoptosis in human HeLa cells assessed as necrotic cells at 10 nM incubated for 72 hrs by annexin V FITC and propidium iodide staining based flow cytometry analysis (reference value: 2.88 %); assay type: functional
HeLa [14] = assay: Induction of mitochondrial membrane potential alteration in human HeLa cells assessed as viable cells at 10 nM measured after 48 hrs by JC1 staining-based flow cytometry analysis (reference value: 90.9%); assay type: functional; details: read-out: Activity
HeLa [15] = assay: Induction of mitochondrial membrane potential alteration in human HeLa cells assessed as early apoptotic cells at 10 nM measured after 48 hrs by JC1 staining-based flow cytometry analysis (reference value: 9.07 %); assay type: functional
HeLa [16] = assay: Induction of mitochondrial membrane potential alteration in human HeLa cells assessed as late apoptotic cells at 10 nM measured after 48 hrs by JC1 staining-based flow cytometry analysis (reference value: 0.009%); assay type: functional
HeLa [17] = assay: Induction of mitochondrial membrane potential alteration in human HeLa cells assessed as necrotic cells at 10 nM measured after 48 hrs by JC1 staining-based flow cytometry analysis (reference value: 0%); assay type: functional
[18] = Antiproliferative activity against human A549/PTX cells assessed as reduction in cell viability measured for 48 hrs by MTS assay; assay type: functional, cell-based
[19] = Resistance index, ratio of IC50 for antiproliferative activity against human A549/PTX cells assessed as reduction in cell viability to IC50 for antiproliferative activity against human A549 cells assessed as reduction in cell viability; assay type: functional
[20] = Metabolic stability in rat liver microsomes assessed as intrinsic clearance incubated for 5 mins in presence of NADPH by HPLC analysis; assay type: ADME, Microsome; details: read-out: CLH

| SMILES | IC50 (HL-60) [nM] | IC50 (HCT-116) [nM] | IC50 (HeLa [1]) [nM] | IC50 (A549) [nM] | also measured |
| --- | --- | --- | --- | --- | --- |
| COc1cc(C(=O)c2nc(NC3CCC3)nc3ccsc23)cc(OC)c1OC | 651 | 293 | 933 | 2400 | – |
| COc1cc(C(=O)c2nc(C3CCCC3)nc3ccsc23)cc(OC)c1OC | > 10000 | > 10000 | > 10000 | > 10000 | – |
| COc1cc(C(=O)c2nc(N3CCOCC3)nc3ccsc23)cc(OC)c1OC | > 10000 | > 10000 | > 10000 | > 10000 | – |
| COc1cc(C(=O)c2nc(N3CC=CC3)nc3ccsc23)cc(OC)c1OC | 93 | 26 | 22 | 101 | – |
| CCN(CC)c1nc(C(=O)c2cc(OC)c(OC)c(OC)c2)c2sccc2n1 | > 10000 | > 10000 | > 10000 | > 10000 | – |
| COc1cc(C(=O)c2nc(N3CCN(C)CC3)nc3ccsc23)cc(OC)c1OC | > 10000 | > 10000 | > 10000 | > 10000 | – |
| COc1ccc(C(=O)c2nc(N3CCCC3)nc3ccsc23)cc1OC | > 10000 | > 10000 | > 10000 | > 10000 | – |
| COc1cc(C(=O)c2nc(N3CCCCC3)nc3ccsc23)cc(OC)c1OC | 1120 | > 10000 | 1200 | > 10000 | – |
| COc1ccc(C(=O)c2nc(N3CCCC3)nc3ccsc23)cc1 | > 10000 | > 10000 | > 10000 | > 10000 | – |
| COc1cc(C(=O)c2nc(SC)nc3ccsc23)cc(OC)c1OC | 285 | > 10000 | > 10000 | > 10000 | – |
| COc1cc(C(=O)c2nc(N(C)C)nc3ccsc23)cc(OC)c1OC | 536 | > 10000 | 1220 | > 10000 | – |
| COc1ccc(/C=C\c2cc(OC)c(OC)c(OC)c2)cc1O [COMBRETASTATIN A4] | 1.3 | 1.1 | 1.4 | 7.5 | viability at 0.01 µM (HeLa [2]): 79.4%; Activity (HeLa [3]): 7.41%; Activity (HeLa [4]): 7.5%; Activity (HeLa [5]): 8.87%; viability at 0.01 µM (HeLa [6]): 16.9%; Activity (HeLa [7]): 20.1%; Activity (HeLa [8]): 51.9%; Activity (HeLa [9]): 11.2%; viability at 0.01 µM (HeLa [10]): 25.1%; Activity (HeLa [11]): 17%; Activity (HeLa [12]): 31.8%; Activity (HeLa [13]): 23.3%; viability at 0.01 µM (HeLa [14]): 82%; Activity (HeLa [15]): 18%; Activity (HeLa [16]): 0%; Activity (HeLa [17]): 0.011% |
| CC(=O)O[C@H]1C(=O)[C@@]2(C)[C@H]([C@H](OC(=O)c3ccccc3)[C@]3(O)C[C@H](OC(=O)[C@H](O)[C@@H](NC(=O)c4ccccc4)c4ccccc4)C(C)=C1C3(C)C)[C@]1(OC(C)=O)CO[C@@H]1C[C@@H]2O [PACLITAXEL] | – | – | – | 1.1 | IC50 [18]: 1020 nM; Ratio IC50 [19]: 964 |
| CCOc1nc(C(=O)c2cc(OC)c(OC)c(OC)c2)c2sccc2n1 | 7090 | > 10000 | > 10000 | > 10000 | – |
| O=C(O)Cc1ccccc1Nc1c(Cl)cccc1Cl [DICLOFENAC] | – | – | – | – | microsomal CLint [20]: 64.2 µL/min/mg |

Further lines, with some results ahead:

| IC50 (HL-60) [nM] | IC50 (HCT-116) [nM] | IC50 (HeLa [1]) [nM] | IC50 (A549) [nM] | SMILES | also measured |
| --- | --- | --- | --- | --- | --- |
| 32 | 114 | 58 | 45 | CNc1nc(C(=O)c2cc(OC)c(OC)c(OC)c2)c2sccc2n1 | – |
| 8050 | > 10000 | > 10000 | > 10000 | COc1cc(C(=O)c2nc(NC3CCOCC3)nc3ccsc23)cc(OC)c1OC | – |
| 122 | 1740 | 194 | 452 | COc1cc(C(=O)c2nc(N3CCCC3)nc3cc(C)sc23)cc(OC)c1OC | – |
| > 10000 | > 10000 | > 10000 | > 10000 | COc1cc(C(=O)c2nc(N3CCSCC3)nc3ccsc23)cc(OC)c1OC | – |
| 224 | 329 | 263 | 965 | COc1nc(C(=O)c2cc(OC)c(OC)c(OC)c2)c2sccc2n1 | – |
| 889 | 225 | 1140 | 954 | COc1cc(C(=O)c2nc(Cl)nc3ccsc23)cc(OC)c1OC | – |
| 8400 | > 10000 | > 10000 | > 10000 | COc1cc(C(=O)c2nc(NC3CCCC3)nc3ccsc23)cc(OC)c1OC | – |
| 2460 | > 10000 | > 10000 | > 10000 | COc1cc(C(=O)c2nc(NC3CCCCC3)nc3ccsc23)cc(OC)c1OC | – |
| 174 | 309 | 37 | 147 | CCNc1nc(C(=O)c2cc(OC)c(OC)c(OC)c2)c2sccc2n1 | – |
| 9570 | > 10000 | > 10000 | > 10000 | COc1cccc(C(=O)c2nc(N3CCCC3)nc3ccsc23)c1 | – |
| > 10000 | > 10000 | > 10000 | > 10000 | COc1cc(C(=O)c2nc(N3CCS(=O)(=O)CC3)nc3ccsc23)cc(OC)c1OC | – |
| 377 | 507 | 351 | 303 | COc1cc(C(=O)c2nc(N3CCC(F)(F)C3)nc3ccsc23)cc(OC)c1OC | – |
| > 10000 | > 10000 | > 10000 | > 10000 | COc1cc(C(=O)c2nc(N(C)C3CCCCC3)nc3ccsc23)cc(OC)c1OC | – |
| 934 | 616 | 4380 | 4340 | COc1cc(OC)cc(C(=O)c2nc(N3CCCC3)nc3ccsc23)c1 | – |
| 3430 | 1400 | 2200 | 4980 | COc1cc(C(=O)c2nc(N3CCC(O)C3)nc3ccsc23)cc(OC)c1OC (configuration not stated) | – |
| – | 151 | 53 | – | COc1cc(C(=O)c2nc(Nc3cccc(C)c3)nc3ccsc23)cc(OC)c1OC | – |
| 486 | 278 | 758 | 3140 | COc1cc(C(=O)c2nc(N3CCC3)nc3ccsc23)cc(OC)c1OC | – |
| > 10000 | > 10000 | > 10000 | > 10000 | COc1cc(C(=O)c2nc(N3CCNCC3)nc3ccsc23)cc(OC)c1OC | – |
